From US8242134B2, “Isoquinolinone derivatives as NK3 antagonists” (H. Lundbeck A/S, priority 2008, dated 2012)

Assays:
[1] = cited from earlier work
human NK3 receptor = molecular target: T1, human NK3 receptor (Homo sapiens, UniProt P29371); experiment: NK3 receptor binding assay (SPA competition binding, 125I-NKB); conditions: read-out: Affinity (Ki/nM)
T1 construct: expressed in transfected cells
T1 sequence (P29371 1-465): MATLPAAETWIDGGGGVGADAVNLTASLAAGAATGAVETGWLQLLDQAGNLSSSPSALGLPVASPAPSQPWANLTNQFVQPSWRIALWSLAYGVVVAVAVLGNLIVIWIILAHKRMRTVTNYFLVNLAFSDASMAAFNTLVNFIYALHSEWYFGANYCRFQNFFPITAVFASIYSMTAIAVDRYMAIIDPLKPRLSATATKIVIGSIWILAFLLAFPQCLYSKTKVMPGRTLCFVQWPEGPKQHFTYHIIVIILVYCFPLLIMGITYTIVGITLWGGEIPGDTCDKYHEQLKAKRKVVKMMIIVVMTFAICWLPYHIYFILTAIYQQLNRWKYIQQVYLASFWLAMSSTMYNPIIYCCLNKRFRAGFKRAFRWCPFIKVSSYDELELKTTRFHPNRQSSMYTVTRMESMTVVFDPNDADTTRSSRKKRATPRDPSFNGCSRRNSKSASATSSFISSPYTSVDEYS
Method: Membrane preparation: BHK cells stably expressing the human NK3 receptor were seeded in harvesting plates in Dulbeccos MEM containing GlutaMax (862 mg/l), 1 mM sodium pyruvate, 10% fetal calf serum, 1% Pen/Strep, 1 mg/ml G418 and were grown at 34° C. in a humidified atmosphere containing 10% CO2. To increase receptor expression, 10 μM trichotatin A was added to the media 24 hours before harvest of the cells at a confluency of app 90%. Prior to the harvesting, the cells were washed twice with PBS without Mg^2+ og Ca^2+ and subsequently scrapped of in 10 ml PBS pr harvesting plate. The cells suspension were centrifuged at 1500×G in three minutes before resuspension in 15 mM Tris-HCl pH 7.5 buffer containing 2 mM MgCl2; 0.3 mM EDTA and 1 mM EGTA (buffer A). The cell suspension was homogenised and subsequently centrifuged at 40000×G in 30 minutes. The membrane-pellet was resuspended in buffer A containing 250 mM sucrose, aliquoted and stored at −80° C.
Affinity assay description: The assay was performed as a SPA-based competition-binding assay in a 50 mM Tris pH 7.4 assay buffer containing 120 mM NaCl, 3 mM MnCl2, 40 μg/ml bacitracin, 2 μg/ml Chymostatin, 1 μg/ml Phosphoramidon and 4 μg/ml Leupeptin. […] The assay plate was subsequently under agitation incubated for 90 min at RT.

Row | Structure (SMILES) | Ki (human NK3 receptor) | also measured
1 | CC[C@H](NC(=O)c1c(O)c(-c2ccccc2)nc2ccccc12)c1ccccc1 [Talnetant, talnetant] |  | effect on cognitive behaviour of schizophrenics in clinical trials ([1]; in vivo): ameliorate the cognitive behaviour of schizophrenics
2 | CC(=O)N(C)C1(c2ccccc2)CCN(CCC[C@]2(c3ccc(Cl)c(Cl)c3)CCCN(C(=O)c3ccccc3)C2)CC1 [Osanetant, osanetant] |  | effect in clinical trials versus placebo ([1]; in particular on positive symptoms of psychosis): superior to placebo
3 | Cc1c(C(=O)N[C@H](c2cccc(F)c2)C2CC2)c2cccc(F)c2c(=O)n1[C@@H]1CCNC1 [Example 5g, 8-Fluoro-3-methyl-1-oxo-2-(R)-1-pyrrolidin-3-yl-1,2-dihydro-isoquinoline-4-carboxylic acid [(S)-cyclopropyl-(3-fluoro-phenyl)-methyl]-amide] | 180 nM | 
4 | Cc1c(C(=O)N[C@H](c2cccc(F)c2)C2CCC2)c2cccc(F)c2c(=O)n1[C@H]1CCOC1 [Example 4r, 8-Fluoro-3-methyl-1-oxo-2-(S)-tetrahydro-furan-3-yl-1,2-dihydro-isoquinoline-4-carboxylic acid [(S)-cyclobutyl-(3-fluoro-phenyl)-methyl]-amide] | 170 nM | 
